Test results from patent US6887846B2, “Antimicrobial amino acid sequences derived from alpha-melanocyte-stimulating hormone” (priority 1999, dated 2005).
“Also recorded” adds a separate entry of the source.

Key:
S. aureus (ATCC 29213) = assay: Trial of melanocortin peptides on S. aureus viability (colony formation); type: cell-based; settings: peptide 10^−15 to 10^−4M, 2 hours at 37° C., compared to controls
Experimental: S. aureus (ATCC 29213) and C. albicans (clinical isolate) were obtained from the collection of the Department of Microbiology, Ospedale Maggiore di Milano. C. albicans were maintained on Sabouraud'[…] periodically transferred to Sabouraud's agar plates and incubated for 48 hours at 28° C. To prepare stationary growth phase yeast, a colony was taken from the agar plate and transferred into 30 ml Sabouraud-dextrose broth and incubated for 72 hours at 32° C. Cells were centrifuged at 1000×g for 10 minutes and the pellet was washed twice with distilled water. Cells were counted and suspended in Hank's balanced salt solution (“HBSS”) to the desired concentration. Viability, determined by the exclusion of 0.01% methylene blue, remained >98%. […] Cells were then washed in cold distilled water and diluted with HBSS to a concentration of 100 organisms/ml. One ml aliquots were dispensed on blood agar plates and incubated for 24 hours at 37° C. Organism viability was estimated from the number of colonies formed.

[1] = test system: C. albicans (clinical isolate); assay: Trial of melanocortin peptides on C. albicans viability (colony formation); type: cell-based; settings: for C. albicans colony forming units (CFU): peptide 10^−15 to 10^−4M, 2 hours at 37° C., compared to controls; for reduction of C. albicans CFU at higher concentrations: up to 10^-4M
Experimental: S. aureus (ATCC 29213) and C. albicans (clinical isolate) were obtained from the collection of the Department of Microbiology, Ospedale Maggiore di Milano. C. albicans were maintained on Sabouraud'[…] periodically transferred to Sabouraud's agar plates and incubated for 48 hours at 28° C. To prepare stationary growth phase yeast, a colony was taken from the agar plate and transferred into 30 ml Sabouraud-dextrose broth and incubated for 72 hours at 32° C. Cells were centrifuged at 1000×g for 10 minutes and the pellet was washed twice with distilled water. Cells were counted and suspended in Hank's balanced salt solution (“HBSS”) to the desired concentration. […] Cells were then washed in cold distilled water and diluted with HBSS to a concentration of 100 organisms/ml. One ml aliquots were dispensed on blood agar plates and incubated for 48 hours at 37° C. Organism viability was estimated from the number of colonies formed. […] There were at least six replicates for each concentration of peptide. […] The reaction was stopped after 3 minutes by the addition of ice cold ethanol. cAMP was measured in duplicate using a commercial enzyme immunoassay (EIA) kit (Amersham, United Kingdom) after extraction via the liquid-phase method according to manufacturer's instructions.

[2] = vs α-MSH; cited from earlier work
cAMP = assay: Trial of α-MSH peptides on cAMP accumulation in C. albicans; type: cell-based; settings: 10^−6M; for cAMP content of C. albicans: 3 minutes at 37° C., permeabilized yeast; for increase in cAMP compared with forskolin: equimolar
Experimental: The reaction was stopped after 3 minutes by the addition of ice cold ethanol. cAMP was measured in duplicate using a commercial enzyme immunoassay (EIA) kit (Amersham, United Kingdom) after extraction via the liquid-phase method according to manufacturer's instructions. The effect of forskolin (10^−6M) on C. albicans colony formation was determined using the same procedures as for α-MSH peptides.

[3] = test system: C. albicans killing by human neutrophils; assay: Trial of α-MSH peptides on C. albicans killing by human neutrophils; type: cell-based; settings: 2 hours at 37° C., vs medium alone
Experimental: Venous blood (20 ml) from healthy volunteers was anticoagulated with heparin. Neutrophils were isolated using dextran sedimentation and Ficoll-Hypaque (Sigma Chemical Co., St. Louis, Mo., USA) centrifugation. Erythrocytes were lysed via hypotonic shock. Neutrophils represented at least 97% of the cell suspension. Cell viability, estimated by trypan blue exclusion, was >98%. Neutrophils were suspended to final concentration in HBSS. […] After incubation, the culture tubes were placed on ice to stop growth and extracellular organisms were washed twice with centrifugation at 1000×g at 4° C. A 2.5% sodium desoxycholate solution was added to the suspension and the tubes were shaken for 5 min. Cold distilled water was added to obtain a suspension of 10^6 cells/ml. Two 1/100 serial dilution in HBSS were made to obtain a final suspension of 100 cells/ml. Aliquots of 1 ml were dispensed on blood agar plates and incubated for 48 hours at 37° C. Colony forming units (“CFU”) were counted at the end of the incubation period. Experiments were run in triplicate and repeated using blood from 5 different donors.

S. aureus = assay: Influence on urokinase-induced growth enhancement of S. aureus; type: cell-based; settings: peptide 10^−6M, urokinase 500 U, 4 hours at 37° C.; p<0.001 vs urokinase alone
Description: In experiments on S. aureus we determined the influence of α-MSH on urokinase-induced growth-enhancement. Hart, D. A., Loule, T., Krulikl, W., Reno, C., Staphylococcus Aureus Strains Differ in Their in Vitro Responsiveness to Human Urokinase: Evidence That Methicillin-resistant Strains Are Predominantly Nonresponsive to the Growth-enhancing Effects of Urokinase, Can. J. Microbiol. 42, 1024-31 (1966). […] Appropriate dilutions of S. aureus were dispensed on agar plates and colonies counted after 24 hours incubation at 37° C.

HIV-1 = settings: acutely and chronically infected monocytes; cited from earlier work

Substance: NH2-Lys-Pro-Val-AcCys-CysAc-Val-Pro-Lys-NH2 [KPV dimer]
- S. aureus colony formation (CFU) (S. aureus (ATCC 29213)): significantly decreased S. aureus colony forming units; also recorded: inhibited S. aureus colony formation
- effectiveness against microbes compared with α-MSH (11-13) ([1]; S. aureus and C. albicans): at least as effective as α-MSH (11-13) against microbes
- C. albicans colony forming units (CFU) [1]: significantly decreased C. albicans colony forming units; also recorded: inhibited C. albicans colony formation

Substance: [Nle^4,D-Phe^7]-α-MSH
- potency in reducing fever relative to the parent peptide [2]: approximately 10 times

Substance: KPV (Ac-Lys-Pro-Val-NH2) [α-MSH (11-13)]
- S. aureus colony formation (CFU) (S. aureus (ATCC 29213)): significantly decreased S. aureus colony forming units; also recorded: inhibited S. aureus colony formation
- cAMP content of C. albicans (cAMP): enhanced cAMP content in the yeast
- increase in cAMP compared with forskolin (cAMP): same order of magnitude as that induced by equimolar forskolin
- killing of C. albicans by human neutrophils [3]: enhanced killing of C. albicans by human neutrophils
- urokinase-enhanced S. aureus colony formation (S. aureus): significantly inhibited this urokinase-enhancing effect; also recorded: significantly inhibited the enhancing effect of urokinase
- relative potency in reducing C. albicans viability ([1]; 10^−6M): most effective
- C. albicans colony forming units (CFU) [1]: significantly decreased C. albicans colony forming units; also recorded: greatly reduced

Substance: ACTH (18-39): ACTH fragment (18-39) (CLIP) [reference compound]
- relative potency in reducing C. albicans viability ([1]; 10^−6M): did not reduce C. albicans viability
- reduction of C. albicans CFU at higher concentrations [1]: ineffective

Substance: SYSMEHFRWGKPV [α-MSH (1-13)]
- S. aureus colony formation (CFU) (S. aureus (ATCC 29213)): significantly decreased S. aureus colony forming units; also recorded: inhibited S. aureus colony formation
- cAMP content of C. albicans (cAMP): enhanced cAMP content in the yeast
- increase in cAMP compared with forskolin (cAMP): same order of magnitude as that induced by equimolar forskolin
- killing of C. albicans by human neutrophils [3]: enhanced killing of C. albicans by human neutrophils
- HIV-1 replication (HIV-1): inhibits HIV-1 replication in acutely and chronically infected monocytes
- urokinase-enhanced S. aureus colony formation (S. aureus): significantly inhibited this urokinase-enhancing effect; also recorded: significantly inhibited the enhancing effect of urokinase
- C. albicans colony forming units (CFU) [1]: significantly decreased C. albicans colony forming units; also recorded: greatly reduced

Substance: HFRWGKPV (Ac-HFRWGKPV-NH2) [α-MSH (6-13)]
- relative potency in reducing C. albicans viability ([1]; 10^−6M): most effective

Substance: ACTH (1-39): adrenocorticotropic hormone (1-39), melanocortin peptide (SYSMEHFRWGKPVGKKRRPVKVYPNGAEDESAEAFPLEF; Corticotropin; UniProt P01189 138-176, looked up) [reference compound]
- relative potency in reducing C. albicans viability ([1]; 10^−6M): did not reduce C. albicans viability
- reduction of C. albicans CFU at higher concentrations [1]: ineffective

Substance: MEHFRWG (Ac-MEHFRWG-NH2) [α-MSH (4-10)]
- inhibition of C. albicans CFU ([1]; 10^−6M): approximately 50%
